Measured values taken from US11873279B2, “Compositions for treatment of ocular diseases” (Perfuse Therapeutics, Inc., priority 2020, dated 2024).

Legend:
[1] = system: laser-induced NHP glaucoma model; test: Laser-induced NHP glaucoma model, optic nerve head blood flow; assay type: in vivo, non-human primate (NHP); settings: dose-dependent
Excerpt: Other examples of relevant animal glaucoma models are Morrison's rat model of chronically elevated IOP and the laser-induced non-human primate (NHP) glaucoma model. Glaucoma in Morrison's rat model is induced by sustained elevation of IOP through hypertonic saline administration via episcleral veins. […] Efficacy in the above-described glaucoma models is defined as reduction in IOP, improvement in optic nerve head or retinal blood flow from baseline, prevention or slowing of the progression of structural neurodegenerative changes such as retinal nerve fiber layer thickness as measured by optical coherence tomography (OCT) or retinal ganglion cell counts on flat mount as well as functional changes such as electroretinography (ERG) or contrast sensitivity after treatment with a composition containing Edonentan crystalline forms.

[2] = Slurry conversion of crystalline forms, XRPD confirmation (thermodynamic stability); assay type: physicochemical
Method: For example, a disclosed crystalline form (e.g., Form 4), may be stored under practical and economical storage conditions, while retaining physical properties so that it may be manufactured into a dosage form. In another set of examples, a disclosed crystalline form (e.g., Form 1, Form 2, Form 3) are converted to disclosed crystalline form (e.g., Form 4). For example, heating a slurry of crystalline Form 1 in about 20 mL of a mixture of isopropanol and water (1:2) at 80° C. for 24 hours, and then cooling and filtering the sample obtained from the solution affords the crystalline Form 4. In another example, stirring the amorphous form of a compound of Formula I in 20 mL of water at 25° C. for 15 hours affords crystalline Form 2, and then subsequently heating crystalline Form 2 at 100° C. for 40 hours followed by filtration affords the crystalline Form 4. In yet another example, heating a slurry of the anhydrous crystalline Form 3 in 30 mL of water at 80° C. for 40 hours and then cooling and filtering the sample obtained from the solution affords the crystalline Form 4. […] In an embodiment, a disclosed crystalline form may have improved chemical and/or physical stability when e.g., compounded in a pharmaceutical formulation, as compared to e.g., the amorphous form. In some embodiments, the crystalline form is crystalline Form 4.
In an alternate method, 150 mg of Edonentan (Form 3) was added to a mixture of isopropanol and water (1 mL and 2 mL, respectively). The resulting slurry was stirred at 15° C. for 48 hours and then filtered.
In an alternate method, 200 mg of Edonentan (Form 1) was added to a mixture of isopropanol and water (1.3 mL and 2.6 mL, respectively). The resulting solution was heated to 80° C. and stirred for 24 h, then cooled and filtered.

Structure (SMILES) | Optic nerve head blood flow [1] | Thermodynamic stability relative to Form 1 ([2]; Form 1 in isopropanol/water (1.3 mL/2.6 mL), 80° C., 24 h, converted to Form 4 by XRPD) | Thermodynamic stability relative to Form 3 ([2]; Form 3 slurry in isopropanol/water (1 mL/2 mL), 15° C., 48 hours, converted to Form 4 by XRPD) | Thermodynamic stability compared to the other crystalline forms ([2]; summary statement of Example 6)
Cc1onc(NS(=O)(=O)c2ccccc2-c2ccc(-c3ncco3)cc2CN(C)C(=O)CC(C)(C)C)c1C [Edonentan, N-[[2′-[[(4,5-dimethyl-3-isoxazolyl)amino]sulfonyl]-4-(2-oxazolyl)[1,1′-biphenyl]-2-yl]methyl]-N,3,3-trimethylbutanamide] | improve optic nerve head blood flow in a dose-dependent manner |  |  | 
Cc1onc(NS(=O)(=O)c2ccccc2-c2ccc(-c3ncco3)cc2CN(C)C(=O)CC(C)(C)C)c1C [Form 4, N-[[2′-[[(4,5-dimethyl-3-isoxazolyl)amino]sulfonyl]-4-(2-oxazolyl)[1,1′-biphenyl]-2-yl]methyl]-N,3,3-trimethylbutanamide] |  | more thermodynamically stable than Form 1 | more thermodynamically stable than Form 3 | higher thermodynamic stability compared to Form 1, Form 2 and Form 3
